Assay results reported in the NIST ThermoML archive (doi:10.1016/j.jct.2008.03.013).
± gives the expanded uncertainty stated by the source.

Legend:
[1] = refractive index (Na D-line) (dimensionless); xn = mol fraction of the nth substance listed; conditions: 298.15 K, 100 kPa, Liquid, Standard Abbe refractometry
[2] = xn = mol fraction of the nth substance listed; conditions: 100 kPa, Liquid

CCCCn1cc[n+](C)c1.COS(=O)(=O)[O-] [1-butyl-3-methylimidazolium methyl sulfate] + CCO
[1]
Conditions	refractive index
x2 = 0	1.47792 ± 0.0012
x2 = 0.0651	1.4759 ± 0.0012
x2 = 0.0922	1.475 ± 0.0011
x2 = 0.2011	1.4711 ± 0.001
x2 = 0.3091	1.46633 ± 0.00098
x2 = 0.402	1.46114 ± 0.00091
x2 = 0.491	1.45512 ± 0.00086
x2 = 0.5788	1.4478 ± 0.00081
x2 = 0.7142	1.43243 ± 0.00075
x2 = 0.807	1.41714 ± 0.00071
x2 = 0.895	1.39734 ± 0.00069
x2 = 0.9445	1.38212 ± 0.00068

[2]
Conditions	mass density, 298.15 K [kg/m3]	mass density, 313.15 K [kg/m3]	mass density, 328.15 K [kg/m3]	viscosity, 298.15 K [mPa·s]	viscosity, 313.15 K [mPa·s]	viscosity, 328.15 K [mPa·s]
x2 = 0	1213.43 ± 5.2	1203.48 ± 5.1	1193.59 ± 5	182.3 ± 32	84.7 ± 6.6	45.35 ± 1.9
x2 = 0.0651	1205.77 ± 4.5	1195.71 ± 4.4	1185.73 ± 4.3	156.7 ± 25	74.9 ± 4.6	40.76 ± 1.7
x2 = 0.0922	1202.49 ± 4.2	1192.4 ± 4.2	1182.4 ± 4.1	131.9 ± 18	64.1 ± 2.7	35.9 ± 1.5
x2 = 0.2011	1187.41 ± 3.3	1177.24 ± 3.2	1167.12 ± 3.1	88.6 ± 7.2	46.28 ± 1.8	27.16 ± 1.1
x2 = 0.3091	1169.23 ± 2.4	1158.88 ± 2.4	1148.61 ± 2.3	56.32 ± 1.4	31.64 ± 1.2	19.89 ± 0.83
x2 = 0.402	1150.09 ± 1.8	1139.56 ± 1.8	1129.14 ± 1.8	37.85 ± 1.4	22.35 ± 0.88	14.41 ± 0.66
x2 = 0.491	1127.58 ± 1.3	1117.04 ± 1.3	1106.55 ± 1.3	25.04 ± 0.94	15.62 ± 0.68	10.53 ± 0.56
x2 = 0.5788	1100.78 ± 0.94	1089.92 ± 0.92	1079.14 ± 0.9	16.22 ± 0.68	10.58 ± 0.55	7.263 ± 0.49
x2 = 0.7142	1043.7 ± 0.48	1032.43 ± 0.46	1021.2 ± 0.45	7.427 ± 0.49	5.271 ± 0.45	4.019 ± 0.43
x2 = 0.807	989.09 ± 0.27	977.5 ± 0.28	965.92 ± 0.29	4.349 ± 0.44	3.197 ± 0.42	2.503 ± 0.41
x2 = 0.895	917.29 ± 0.21	905.22 ± 0.22	893.02 ± 0.23	2.465 ± 0.41	1.863 ± 0.41	1.432 ± 0.4
x2 = 0.9445	863.52 ± 0.21	851.11 ± 0.22	838.48 ± 0.23	1.733 ± 0.41	1.319 ± 0.4	1.033 ± 0.4
